Experimental findings from patent US20240366624A1, “METHODS AND COMPOSITIONS FOR TREATING THROMBOTIC DISEASE” (Washington University, priority 2023, published 2024) are described below.

For data set [1], the target named is T1, MAO-A (monoamine oxidase A) (Homo sapiens, UniProt P21397).
T1 sequence (P21397 1-527): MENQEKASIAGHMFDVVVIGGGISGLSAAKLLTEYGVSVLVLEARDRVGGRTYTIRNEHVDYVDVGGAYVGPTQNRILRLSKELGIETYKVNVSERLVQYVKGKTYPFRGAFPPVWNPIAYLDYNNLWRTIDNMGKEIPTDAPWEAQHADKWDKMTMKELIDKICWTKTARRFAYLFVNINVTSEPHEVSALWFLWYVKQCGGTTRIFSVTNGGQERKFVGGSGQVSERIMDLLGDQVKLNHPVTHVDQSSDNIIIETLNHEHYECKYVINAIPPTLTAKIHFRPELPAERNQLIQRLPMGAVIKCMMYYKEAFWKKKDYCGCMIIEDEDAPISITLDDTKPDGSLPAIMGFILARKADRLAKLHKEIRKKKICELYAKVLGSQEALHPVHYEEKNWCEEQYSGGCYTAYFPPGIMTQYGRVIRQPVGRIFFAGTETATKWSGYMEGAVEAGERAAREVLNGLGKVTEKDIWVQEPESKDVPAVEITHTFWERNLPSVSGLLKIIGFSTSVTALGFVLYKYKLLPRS
Put plainly: MAO-A activity assay. The format is biochemical.

The next data set can be described thus: Water solubility. It counts as physicochemical.
The subject of a further data set is WT (C57BL/6) mice. As to the kind of experiment: Ex vivo platelet activation and aggregation after intravenous injection. It counts as in vivo, mouse. As for the experimental part: FIG. 19(A-Q) is an exemplary embodiment of B12-5 having an antithrombotic effect without prolonging tail bleeding times in mice in accordance with the present disclosure. FIG. 19(A-C): Ex vivo effects of B12-5. […] One hour later, blood was drawn, followed by isolating platelets. P-selectin exposure (FIG. 19A) and αIIbβ3 integrin activation (FIG. 19B) were assessed in flow cytometry. FIG. 19C: Platelet aggregation was measured after treatment with 0.025 U/mL thrombin. The data represent the mean±SD (n=4). FIG. 19D: The plasma levels of B12-5 were analyzed by liquid chromatography-tandem mass spectrometry (LC-MS/MS) after intravenous injection of the compound (5 μg/g BW) into WT mice and quantified by comparison with a standard curve of B12-5 (mean±SD, n=3). […] The median integrated fluorescence intensities of anti-CD42c (F platelet) and anti-fibrin (F fibrin) antibodies (n=37-42 arterioles in 6 mice per group). Quantification of the antibody signal at a different time point after laser injury. […] Thirty minutes later, tail bleeding times and Hb contents were measured after amputation of the tail tip. […] Twenty-three hours later, neurological deficits were assessed by the Bederson score and grip test, and infarct volume was measured as described in Methods. […] Twenty-three hours later, the neurological deficit and infarct volume were measured as described above. […]

With `O=C(CSc1nc(O)cc(O)n1)N1c2ccccc2Sc2ccccc21` [B12-5], the “effect on MAO-A activity” value in data set [1] (10 μM) is “without affecting”. Moreover, the “inhibition of MAO-A activity” value in data set [1] (30 μM) was determined as 30%. In addition, the “MAO-A inhibition at 100 μM (%)” value in data set [1] (100 μM) worked out at 50.7 ± 9%. Besides, in “Water solubility”, the water solubility result is “poor”. Moreover, the “inhibitory effects ex vivo” value in the data set on WT (C57BL/6) mice (2 μg/g BW, data not shown) was “did not show inhibitory effects”. In addition, in the data set with WT (C57BL/6) mice (iv 5 μg/g BW, blood drawn 1 hour later), the “P-selectin exposure, αIIbβ3 integrin activation, and aggregation ex vivo” value was “significantly inhibited”.
